According to patent US20090286808A1, “Opsin Stabilizing Compounds and Methods of Use” (University of Florida Research Foundation, Inc., priority 2006, published 2009):
“Also recorded” adds a separate entry of the source. Read-outs that look alike come from different tables or passages of the source. One block for each compound: values may come before it.

Experiments:
P23H opsin [1] = target: T1, P23H opsin (Bos taurus, UniProt P02699, P23H); experiment: Yield of folded P23H rhodopsin purified from P23H opsin expressing HEK293 cells, by spectrophotometry; type: cell-based, bovine; settings: for % Increase in P23H Yield (Table 1): compound concentration 100 μM, compared to control; for increase in P23H pigment over control: compound present during P23H opsin expression, 48 hours, β-ionone 10 μM; for increase in the yield of folded P23H rhodopsin: P23H opsin expressing cells treated with compound, versus no compound; for yield of folded P23H rhodopsin, in words: versus absence of the compound
T1 construct: expressed in transfected cells
Procedure: Wild-type (WT) and P23H expressing stable cell lines were generated in a commercially available cloning system, the Flp-In T-Rex System™ (Invitrogen). The stable cells were grown in DMEM high glucose media supplemented with 10% (vlv) fetal bovine serum, antibiotic antimycotic solution, […] blasticidin and hygromycin at 37° C. in presence of 5% CO2. For all the experiments the cells were allowed to reach confluence and were induced with 1 μg/ml tetracycline after change of media and then compounds were added. The plates were incubated for 48 h after which the cells were harvested.
For purification of rhodopsin 100 μM […] was added to a confluent plate of P23H cells after induction. […] Rhodopsin purification was essentially as described below for opsin purification with minor modifications. Briefly, the cells were harvested and washed with PBS followed by incubation with 50 μM 11-cis-retinal for 1.5 h at 4° C. The cells were then washed three times with PBS to remove excess retinal. Lysis, column binding and elution from the column were same as in case of opsin purification.
Stable cell lines expressing the P23H opsin were generated using Flp-In T-Rex system (Invitrogen) in HEK293 cell line. To create plasmids for constructing stable cell lines, an EcoRI-NotI fragment from the wild-type or P23H mutant synthetoc bovine opsin gene in pMT4 (see Kaushal et al., Biochemistry, Vol. 33, pp. 6121-6128 (1994) was combined with the large EcoRI-NotI fragment of pcDNA5/FRT/TO (Invitrogen). The resulting plasmids contain opsin under the control of a tetracycline-inducible human cytomegalovirus promoter and a flippase recognition sequence (FRT) for site sepecific recombination at the unique chromosomal FRT site of HEK293 Flp-In T-Rex. The opsin sequence in these plasmids was verified by PCR cycle sequencing. To construct stable cell lines, HEK293 Flp-In T-Rex cells were co-transfected with the flippase vector pOG44 (from Invitrogen) and the pcDNA5/FRT/TO vector or its derivatives containing the opsin gene. Stable recombinants were obtained by selecting for cells expressing resistance to hygromycin due to plasmid recombination at the FRT site. After the initial selection, the stable cell lines were routinely grown in the same media as HEK293 Flp-In T-rex, except that […].
The stable cells were grown in DMEM high glucose media supplemented with 10% (v/v) fetal bovine serum, antibiotic/antimycotic solution, 5 μg/ml blasticidin and hygromycin at 37° C. in presence of 5% CO2. For all the experiments the cells were allowed to reach confluence and were induced with 1 μg/mi tetracycline after change of media and then compounds were added. The plates were incubated for 48 h after which the cells were harvested.
The effect of the compounds on P23H rhodopsin yield was assessed by purifying and spectrophotormetrically determining the yield. After 48 hours of induction and treatment with compounds the cells were harvested and rhodopsin purified essentially as described in Noorwez et al. (2004). For purification of rhodopsin 100 μM NCI-45012 was added to a confluent plate of P23H cells after induction. […] Rhodopsin purification was essentially as described earlier for opsin purification with minor modifications. Briefly, the cells were harvested and washed with PBS followed by incubation with 50 μM 11-cis-retinal for 1.5 hours at 4° C., The cells were then washed three times with PBS to remove excess retinal. Lysis, column binding and elution from the column were the same as for opsin purification.
Compounds identified by computational modeling (see Example 1) were screened as described above. The effect of compounds on the yield of mutant rhodopsin was determined by spectrophotometry. […]

P23H opsin [2] = target: T1, P23H opsin; type: cell-based, bovine
Procedure: (§1) The P23H opsin producing cells were grown in 6-well plates and induced to produce P23H opsin. The DMSO solutions of the NCI compounds were individually added to separate wells at a final concentration of 100 μM. After incubation for 48 h cells were collected and washed with PBS. The cells were then lysed in PBSD by constantly rotating for 1 h at 4° C. The tubes were spun at 36000 rpm for […] and supernatant collected in fresh tubes. Total protein was quantified using a commercially available assay system, the DC protein assay (Biorad). Equal amounts of protein (10 μg) from different samples was loaded on 4-20% SDS polyacrylamide gels and total opsin quantified by western blotting.
as §1, with “the test” for “the NCI”, “1 hour” for “1 h”, “at 36,000” for “at 36000”, “using” for “using a commercially available assay system, the”, “blotting. Proteins were separated on SDS-PAGE gels and western blotted as described in Noorwez et at (2004).” for “blotting.”
Thus, a higher fraction of P23H molecules attain a stable conformation. […] This might also explain the difference in the degree of rescue obtained with these two pharmacological chaperones.

WT opsin [3] = target: T2, WT opsin (Bos taurus, UniProt P02699); type: biochemical, bovine; settings: compound without 11-cis-retinal chromophore, in vitro
Procedure: The cells were washed after 48 h and rhodopsin purified without treating the cells with 11-cis-retinal under conditions that yield only folded rhodopsin (Noorwez et al. (2004)).

WT opsin [4] = target: T2, WT opsin; experiment: Opsin regeneration and retinal competition: rate of 500 nm pigment formation of purified WT opsin with 11-cis-retinal; type: biochemical, bovine
Procedure: WT opsin producing cells were grown in 10 cm culture plates and induced for opsin production. After 48 hour of induction the cells were harvested and washed with PBS (10 mM sodium phosphate, 130 mM NaCl, pH 7.2). The cells were lysed in PBSD (PBS containing 1.0% DM and 1× protease inhibitor cocktail) for 1 hour and the lysate was added to 1D4 coupled sepharose beads and incubated for 1 hour at 4° C. The beads were washed 5 times in PBSD and twice with 10 mM sodium phosphate buffer containing 0.5% DM, pH 6.0. The bound WT opsin was eluted with a competing peptide representing the last 18 amino acids of rhodopsin in the latter buffer for 1 hour.
All the opsin regeneration and competition assays were performed under dim red light in a Cary 50 spectrophotometer (Varian) equipped with temperature control. 25 μM purified WT opsin was mixed with 50 μM 11-cis retinal and scanned every two minutes in the range of 250-650 nm until no more rhodopsin was regenerated. Similarly opsin was mixed with compound SN10011 (2 or 5 mM) and allowed to sit for 10 minutes on ice. […] The reactions were conducted in 100 μl total volume where the compounds were provided in 2 μl solution to 98 μl opsin solution. The temperature was maintained at 20° C.

P23H opsin [5] = target: T1, P23H opsin; experiment: Yield of folded P23H rhodopsin purified from P23H opsin expressing HEK293 cells, by spectrophotometry; type: cell-based, bovine; settings: 48 h, no 11-cis-retinal
P347S (Class I) mice = settings: cited from earlier work
T17M (Class II) mice = settings: cited from earlier work
[6] = in the presence of 11-cis-retinal

% Increase in P23H Yield (Table 2) (P23H opsin [1]): 29 ± 5%
SMILES: Oc1ccccc1C=Nn1cnnc1 [NSC 121968, 4-Salicylideneamino-1,2,4-triazol]

SMILES: O=[PH](O)c1ccccc1 [Compound 3, phenyl-phosphinic acid]
% Increase in P23H Yield (Table 2) (P23H opsin [1]): 40 ± 3% | % Increase in P23H Yield (Table 1) (P23H opsin [1]): 32%

SMILES: CC1=C(/C=C/C(C)=C/C=C/C(C)=C/C=O)C(C)(C)CCC1 [11-cis-retinal, reference compound]
effectiveness of 11-cis-retinal relative to β-ionone in increasing cellular yields of P23H rhodopsin (P23H opsin [1]): about 2 fold | increase in P23H pigment over control (P23H opsin [1]): 5 fold | increase in yield of total opsin (P23H opsin [2]; [6]): 2.4 fold | yield of folded rhodopsin (P23H opsin [2]; [6]): 2.6 fold

SMILES: Cc1cc([N+](=O)[O-])ccn1 [Compound 4, 2-methyl-4-nitro-pyridine]
% Increase in P23H Yield (Table 2) (P23H opsin [1]): 25 ± 8% | % Increase in P23H Yield (Table 1) (P23H opsin [1]): 24%

increase in P23H pigment over control (P23H opsin [1]): 2.5 fold | increase in yield of total opsin relative to no compound (P23H opsin [2]; P23H cells, β-ionone): 30%
SMILES: CC(=O)/C=C/C1=C(C)CCCC1(C)C [β-ionone]
formation of a 500 nm absorbing pigment with purified WT opsin (WT opsin [3]): does not form a light absorbing pigment; also recorded: did not form a 500 nm absorbing pigment; also recorded: no 500 nm absorbing pigment was formed | inhibition of opsin regeneration (pigment formation with 11-cis-retinal), in words (WT opsin [4]): inhibited opsin regeneration in a dose dependent manner | pigment from P23H HEK cells treated with compound, purified without 11-cis-retinal treatment (P23H opsin [5]): No pigment was detected; also recorded: No pigment was observed; also recorded: No pigment was generated

SMILES: O=C1NC(CCO)C(=O)NC1CCO (centres unmarked) [Compound 5, 3,6-bis-(2-hydroxyethy)-piperazine-2,5-dione]
% Increase in P23H Yield (Table 2) (P23H opsin [1]): 30 ± 10% | % Increase in P23H Yield (Table 1) (P23H opsin [1]): 15%

% Increase in P23H Yield (Table 2) (P23H opsin [1]): 20 ± 5%
SMILES: N#Cc1ccc2c(c1)OCO2 [NSC 27009, 3,4-Methylenedioxybenzonitrile]

SMILES: CC(C)N(CC#N)C(C)C [Compound 6, diisopropylaminoacetonitrile]
% Increase in P23H Yield (Table 2) (P23H opsin [1]): 25 ± 3% | % Increase in P23H Yield (Table 1) (P23H opsin [1]): 28%

SMILES: CC(=O)c1c(C)n[nH]c1C [Compound 1, 1-(3,5-dimethyl-1H-pyrazol-4-yl)ethanone]
formation of a 500 nm absorbing pigment with purified WT opsin (WT opsin [3]; listed as SN10011): No pigment was formed; also recorded: No 500 nm absorbing pigment was generated | % Increase in P23H Yield (Table 2) (P23H opsin [1]): 30 ± 5% | increase in the yield of folded P23H rhodopsin (P23H opsin [1]): 30% | % Increase in P23H Yield (Table 1) (P23H opsin [1]): 31% | yield of folded P23H rhodopsin, in words (P23H opsin [1]): increased yield of folded rhodopsin | inhibition of opsin regeneration (pigment formation with 11-cis-retinal), in words (WT opsin [4]; listed as SN10011): significant effect on inhibition of pigment formation; also recorded: inhibited

% Increase in P23H Yield (Table 2) (P23H opsin [1]): 40 ± 9%
SMILES: Cn1cc(C(N)=O)ccc1=N [NSC 66688, 6-imino-1-methyl-1,6-dihydro-3-pyridinecarboxamine]

SMILES: C[C@@H]1CCC[C@H](C)C1 [cis-1,3-dimethylcyclohexane]
increase in the yield of folded P23H rhodopsin (P23H opsin [1]): 15% | yield of folded P23H rhodopsin, in words (P23H opsin [1]): increased yield of folded P23H rhodopsin | inhibition of opsin regeneration (pigment formation with 11-cis-retinal), in words (WT opsin [4]): much weaker inhibitor of opsin regeneration

SMILES: N#Cc1cn(Cc2ccco2)c(=O)[nH]c1=O [Compound 2, 1-furan-2-ylmethyl-2,4-dioxo-1,2,3,4-tetrahydro-pyrimidine-5-carbonitrile]
% Increase in P23H Yield (Table 2) (P23H opsin [1]): 40 ± 7% | % Increase in P23H Yield (Table 1) (P23H opsin [1]): 43%

SMILES: Nn1nnc2ccccc21 [NSC 114498, 1H-1,2,3-benzotriazol-1-amine]
% Increase in P23H Yield (Table 2) (P23H opsin [1]): 30 ± 6%

SMILES: CCCCCCCCCCCCCCCC(=O)OC/C=C(C)/C=C/C=C(C)/C=C/C1=C(C)CCCC1(C)C [vitamin A palmitate]
changes in retinal degeneration on treatment (P347S (Class I) mice): no significant changes | decrease in outer nuclear layer (ONL) thickness in treated animals (T17M (Class II) mice): 24% | decrease in the rate of decline in electroretinogram (ERG) a- and b-wave amplitudes (T17M (Class II) mice): 40-45%
